The source of these data is paper PMC2594009 (Structure (London, England : 1993), 2008).

The structures appear in SMILES notation. “Also recorded” adds a separate entry of the source.

One assay has as its system M2. The conditions noted are these: cited from earlier work.
In a further assay the test system is WT AM2. It counts as cell-based, influenza A virus. The conditions noted are these: pH 5.5.

Turning to `NC12CC3CC(CC(C3)C1)C2` [amantadine], the Hill coefficient with M2 was 1.0. Moreover, the “reversibility of inhibition after removal of the drug” value in the assay on WT AM2 is listed as “did not reverse; also recorded: not reversible”.
